Measured values: ChEMBL document CHEMBL1201862, “PubChem BioAssay data set” (2004)
The source made the active and inactive calls.

How the values were obtained:
Estrogen receptor beta = Estrogen receptor beta (Homo sapiens, UniProt Q92731);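 note: recombinant ER-beta bound to coactivator SRC1 peptide in presence of estradiol agonist; inhibitors block coactivator peptide binding and lower the FRET signal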
[1] = luciferase reporter signal suppression in cells – H4 neuroglioma cells, luminescence, dose response (AID 1990); format: functional, cell-based
[2] = luciferase reporter signal reduction – luminescence, H4-C neuroglioblastoma cells, dose response (AID 2458); format: functional, cell-based;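 note: H4 neuroglioblastoma cells stably carrying a luciferase reporter gene fusion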
cells = format: functional, cell-based
[3] = alpha-synuclein stem-loop luciferase translation blockers – H4 neuroglioma cells, luminescence, confirmation (AID 1988); format: functional, cell-based
[4] = Luminescence-based counterscreen assay for KLF5 inhibitors: dose response cell-based high throughput screening assay to identify cytotoxic compounds using the IEC-6 intestinal epithelial cell line. [Related pubchem assays: 1700 (Primary screen.), 1834 (Confirmation screen.), 1858 (Summary AID.), 1905 (Counterscreen.)]; format: functional
[5] = alpha-synuclein stem-loop translation blockers – luminescence, H4 neuroglioblastoma cells, dose confirmation, confirmation (AID 2454); format: functional, cell-based;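 note: H4 neuroglioblastoma cells carrying an alpha-synuclein 5'UTR luciferase reporter; potency for inhibition of the luciferase signal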
[6] = biological target: Luciferin 4-monooxygenase (Photinus pyralis, UniProt P08659); assay: Counter Screen for Luciferase-based Assay Positives. [Related pubchem assays: 620, 618, 411 ]
HT-1080 = assay: HT1080 cell viability loss – fluorescence readout (AID 620); format: functional, cell-based; conditions: Homo sapiens
[7] = Luminescence Cell-Based Dose Retest to Confirm Inhibitors of Cancer Stem Cells. [Related pubchem assays (depositor defined):AID2717, AID2721]; format: functional; conditions: Homo sapiens
[8] = Luminescence Cell-Based Dose Response to Identify Activators of 5'UTR Stem-Loop Driven Prion Protein mRNA Translation in H4-C Neuroglioblastoma Cells. [Related pubchem assays: 1829 (Project Summary), 1814 (Primary HTS)]; format: functional
[9] = Luminescence Cell-Based Dose Response HTS to Identify Activators of Luciferase Translation or Activity in H4 […] Cells. [Related pubchem assays: 1829 (Project Summary), 1814 (Primary HTS)]; format: functional
H4 = assay: Luminescence Cell-Based Dose Response HTS to Identify Activators of 5'UTR Stem-Loop Driven Prion Protein mRNA Translation in H4 Neuroglioblastoma Cells. [Related pubchem assays: 1829 (Project Summary), 1814 (Primary HTS)]; format: functional; conditions: Homo sapiens
[10] = Luminescence Cell-Based Dose Response to Identify Activators of Luciferase Translation or Activity in H4-C Neuroglioblastoma Cells. [Related pubchem assays: 1829 (Project Summary), 1814 (Primary HTS)]; format: functional
[11] = Luminescence Cell-Based Dose Confirmation to Identify Activators of 5'UTR Stem-Loop Driven Alpha-Synuclein mRNA Translation in H4 Neuroglioblastoma Cells. [Related pubchem assays: 1829 (Project Summary), 1814 (Primary HTS)]; format: functional
[12] = biological target: Peroxisome proliferator-activated receptor gamma/Nuclear receptor coactivator 2 (Homo sapiens, UniProt P37231); format: functional;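 note: agonist potency for raising coactivator recruitment to the receptor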
[13] = biological target: Peroxisome proliferator-activated receptor gamma/Nuclear receptor coactivator 1 (Homo sapiens, UniProt P37231); format: functional;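 note: agonist potency as compounds enhance coactivator SRC-1 recruitment to PPARgamma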
[14] = biological target: Peroxisome proliferator-activated receptor gamma/Nuclear receptor coactivator 3 (Homo sapiens, UniProt P37231); format: functional;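 note: agonist potency for raising coactivator recruitment to the receptor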
HEK293 [15] = assay: inhibition of NOD1-driven NF-kB reporter – cell-based, luminescence, uHTS, primary screen (AID 1578); format: functional; conditions: Homo sapiens
BJ [16] = assay: BJ-TERT fibroblast viability loss – cell-based, RAS-independent, luminescence, dose response (AID 1933); format: functional; conditions: Homo sapiens
HEK293 [17] = assay: cells; format: functional, cell-based; conditions: Homo sapiens
BJ [18] = assay: cells; format: functional, cell-based; conditions: Homo sapiens
HEK293 [19] = assay: cells; format: functional, cell-based; conditions: Homo sapiens; remark: listed apart in the source
[20] = biological target: Nucleotide-binding oligomerization domain-containing protein 2 (Homo sapiens, UniProt Q9HC29); assay: inhibition of NOD2-driven NF-kB reporter – cell-based, luminescence, uHTS, HEK293 (AID 1566); format: functional
HEK293 [21] = assay: NOD2 signaling inhibitors in MDP-stimulated cells, cell-based, uHTS, luminescence (AID 2001); format: functional; conditions: Homo sapiens
[22] = Trypanosoma cruzi growth suppression in host cells – NIH3T3 host cells, beta-gal luminescence, confirmation (AID 2044); format: functional, cell-based;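 note: intracellular parasites grown in NIH/3T3 mouse fibroblasts as host cells; luminescent beta-galactosidase reporter signal from transgenic T. cruzi replicating inside host cells; inhibitors lower the luminescence signal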
HEK293 [23] = assay: cells; format: functional, cell-based; conditions: Homo sapiens; remark: listed apart in the source
[24] = NIH3T3 cell viability loss – ATP luminescence, mouse fibroblasts, counter-screen, dose response (AID 2010); format: functional, cell-based;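 note: cells exposed to compound for about 90 hours before reading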
BJ [25] = assay: BJ-TERT-LT-ST fibroblast viability loss – cell-based, RAS-independent, luminescence, dose response (AID 1935); format: functional; conditions: Homo sapiens;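 note: BJ fibroblasts immortalized with TERT plus LT and ST oncogenes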
[26] = DRD fibroblast viability loss – cell-based, non-viral oncogenic, luminescence, dose response (AID 1934); format: functional; conditions: Homo sapiens
[27] = biological target: T1, Voltage-gated N-type calcium channel alpha-1B subunit/Amyloid beta A4 precursor protein-binding family A member 1 (Homo sapiens, UniProt Q00975+Q02410); format: protein assay
[28] = biological target: T1, Voltage-gated N-type calcium channel alpha-1B subunit/Amyloid beta A4 precursor protein-binding family A member 1; format: protein assay; remark: listed apart in the source
[29] = Luminescence Cell-Based Dose Response HTS to Identify Inhibitors of 5'UTR Stem-Loop Driven Prion Protein mRNA Translation in H4 Neuroglioblastoma Cells. [Related pubchem assays: 1827 (Project Summary), 1813 (Primary HTS)]; format: functional
[30] = A549 cell cytotoxicity, dose response, cytotoxicity control, plate reader, cherry-pick, antagonist series (AID 743412); format: functional, cell-based
[31] = toxicity toward HepG2 liver cells – cell-based, plate reader, cherry-pick, antagonist series, cytotoxicity control, dose response (AID 743416); format: functional
[32] = blockers of bursicon-stimulated LGR2 cAMP reporter – cell-based, HEK293, CRE-luciferase reporter, cherry pick, set 2, dose response (AID 743343); format: functional;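 note: transfected cells were stimulated with diluted bursicon conditioned medium after compound addition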
[33] = blockade of melanocortin 4 receptor signaling – cell-based, plate reader, cherry pick, counter-screen for LGR2 antagonist project, dose response (AID 743444); format: functional;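 note: transfected HEK 293 cells stimulated with alpha-MSH peptide; potency of inhibitors of the alpha-MSH evoked signal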
[34] = biological target: FAD-linked sulfhydryl oxidase ALR (Homo sapiens, UniProt P55789); assay: ALR-catalysed DTT oxidation blockers – biochemical, H2O2 detection, luminescence, cherry-pick, dose response (AID 493248)
[35] = biological target: Eukaryotic translation initiation factor 4H (Homo sapiens, UniProt Q15056); assay: eIF4H binding inhibition – biochemical, uHTS, fluorescence polarization, translation initiation inhibitor project, primary screen (AID 2012)
[36] = biological target: Polyadenylate-binding protein 1 (Homo sapiens, UniProt P11940); assay: blockers of PABP interaction with poly(A) – biochemical, fluorescence polarization, […] (AID 2014)
Beta-galactosidase = Beta-galactosidase (Escherichia coli, UniProt Q8VNN2); assay: detection-enzyme interference by beta-gal modulators – biochemical, E. coli enzyme, set 3, artefact control for CCR6 antagonist project, dose response (AID 504712); format: functional
Nonstructural protein 1 = Nonstructural protein 1 (Influenza A virus, UniProt Q194T2); format: functional, Influenza A virus (A/California/07/2009(H1N1))
[37] = Luminescence Cell-Based Dose Confirmation HTS to Identify Activators of 5'UTR Stem-Loop Driven Alpha-Synuclein mRNA Translation in H4 Neuroglioblastoma Cells. [Related pubchem assays: 1829 (Project Summary), 1814 (Primary HTS)]; format: functional
[38] = biological target: T2, Calpain-2 catalytic subunit (Sus scrofa, UniProt P43367); assay: m-calpain protease blockers, concentration series – biochemical, fluorogenic peptide substrate, dose response (AID 1420); format: functional
T2 sequence (P43367 whole entry): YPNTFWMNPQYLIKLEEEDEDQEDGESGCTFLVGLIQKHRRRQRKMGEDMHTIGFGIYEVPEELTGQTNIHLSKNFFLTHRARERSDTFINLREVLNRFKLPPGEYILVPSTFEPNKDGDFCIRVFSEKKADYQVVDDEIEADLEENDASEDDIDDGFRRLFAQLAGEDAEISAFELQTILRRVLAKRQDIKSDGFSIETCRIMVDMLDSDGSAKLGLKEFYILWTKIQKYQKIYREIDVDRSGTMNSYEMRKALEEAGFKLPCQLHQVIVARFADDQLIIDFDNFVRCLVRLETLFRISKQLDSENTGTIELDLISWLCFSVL

INS1 = assay: INS-1E survival protection against cytokine death – cell-based, luminescence, retest, dose response (AID 449756); format: functional; conditions: Rattus norvegicus;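 note: cell death triggered by IL-1 beta plus TNF-alpha plus IFN-gamma mixture; protective hits raise ATP signal compared with cytokine alone wells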

Sequence of Peroxisome proliferator-activated receptor gamma/Nuclear receptor coactivator 3 (P37231 whole entry): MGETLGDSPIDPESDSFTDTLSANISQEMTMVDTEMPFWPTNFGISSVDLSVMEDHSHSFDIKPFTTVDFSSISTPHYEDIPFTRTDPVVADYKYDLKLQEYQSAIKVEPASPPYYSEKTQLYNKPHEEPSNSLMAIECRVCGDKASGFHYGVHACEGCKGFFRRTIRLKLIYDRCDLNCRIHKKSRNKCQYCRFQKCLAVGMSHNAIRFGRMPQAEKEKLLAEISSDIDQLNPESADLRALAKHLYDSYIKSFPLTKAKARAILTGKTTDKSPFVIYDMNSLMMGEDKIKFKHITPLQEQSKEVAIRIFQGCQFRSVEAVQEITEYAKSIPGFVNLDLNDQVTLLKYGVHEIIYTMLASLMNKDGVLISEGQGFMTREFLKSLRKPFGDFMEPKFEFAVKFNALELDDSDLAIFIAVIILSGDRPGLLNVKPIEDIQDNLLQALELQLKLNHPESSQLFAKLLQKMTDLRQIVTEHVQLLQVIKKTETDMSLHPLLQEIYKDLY
Sequence of Peroxisome proliferator-activated receptor gamma/Nuclear receptor coactivator 3 (Q9Y6Q9 whole entry, further chain): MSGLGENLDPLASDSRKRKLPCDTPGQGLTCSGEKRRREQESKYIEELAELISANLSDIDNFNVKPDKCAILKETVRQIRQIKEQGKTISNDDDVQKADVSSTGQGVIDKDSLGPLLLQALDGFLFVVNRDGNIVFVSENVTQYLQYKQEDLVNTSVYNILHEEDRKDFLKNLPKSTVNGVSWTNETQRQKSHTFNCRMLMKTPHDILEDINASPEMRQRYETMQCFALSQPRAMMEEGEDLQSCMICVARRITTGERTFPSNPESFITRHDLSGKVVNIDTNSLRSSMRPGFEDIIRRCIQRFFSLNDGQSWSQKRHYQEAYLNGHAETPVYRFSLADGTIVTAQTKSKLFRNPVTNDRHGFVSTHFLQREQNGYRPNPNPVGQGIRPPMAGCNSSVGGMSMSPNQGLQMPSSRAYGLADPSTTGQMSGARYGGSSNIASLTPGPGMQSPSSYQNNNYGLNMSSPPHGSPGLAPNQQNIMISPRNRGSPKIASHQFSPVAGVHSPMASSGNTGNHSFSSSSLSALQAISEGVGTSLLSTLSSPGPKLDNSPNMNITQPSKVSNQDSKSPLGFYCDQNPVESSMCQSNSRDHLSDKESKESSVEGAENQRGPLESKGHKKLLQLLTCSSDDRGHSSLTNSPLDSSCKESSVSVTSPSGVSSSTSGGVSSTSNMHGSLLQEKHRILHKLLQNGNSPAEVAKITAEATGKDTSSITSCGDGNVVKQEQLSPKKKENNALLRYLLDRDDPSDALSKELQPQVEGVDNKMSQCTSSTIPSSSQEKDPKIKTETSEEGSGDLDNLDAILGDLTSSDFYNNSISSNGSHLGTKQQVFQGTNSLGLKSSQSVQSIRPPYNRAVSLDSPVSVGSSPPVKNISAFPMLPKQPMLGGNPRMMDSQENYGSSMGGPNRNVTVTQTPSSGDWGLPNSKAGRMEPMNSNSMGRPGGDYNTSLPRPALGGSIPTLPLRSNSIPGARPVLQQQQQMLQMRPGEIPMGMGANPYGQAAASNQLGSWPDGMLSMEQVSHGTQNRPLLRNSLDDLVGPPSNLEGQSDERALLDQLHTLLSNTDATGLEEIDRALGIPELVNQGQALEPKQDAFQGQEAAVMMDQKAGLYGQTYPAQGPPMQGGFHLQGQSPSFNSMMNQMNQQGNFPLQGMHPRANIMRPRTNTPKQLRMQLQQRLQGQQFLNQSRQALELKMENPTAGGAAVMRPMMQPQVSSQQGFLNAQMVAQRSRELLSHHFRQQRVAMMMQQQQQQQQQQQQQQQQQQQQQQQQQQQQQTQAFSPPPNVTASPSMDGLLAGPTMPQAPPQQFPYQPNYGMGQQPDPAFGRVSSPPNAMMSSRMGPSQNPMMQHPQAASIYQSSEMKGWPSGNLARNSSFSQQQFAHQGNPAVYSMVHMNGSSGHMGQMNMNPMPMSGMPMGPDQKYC
Sequence of Peroxisome proliferator-activated receptor gamma/Nuclear receptor coactivator 2 (P37231 whole entry): as the sequence (P37231 whole entry) above
Sequence of Peroxisome proliferator-activated receptor gamma/Nuclear receptor coactivator 2 (Q15596 whole entry, further chain): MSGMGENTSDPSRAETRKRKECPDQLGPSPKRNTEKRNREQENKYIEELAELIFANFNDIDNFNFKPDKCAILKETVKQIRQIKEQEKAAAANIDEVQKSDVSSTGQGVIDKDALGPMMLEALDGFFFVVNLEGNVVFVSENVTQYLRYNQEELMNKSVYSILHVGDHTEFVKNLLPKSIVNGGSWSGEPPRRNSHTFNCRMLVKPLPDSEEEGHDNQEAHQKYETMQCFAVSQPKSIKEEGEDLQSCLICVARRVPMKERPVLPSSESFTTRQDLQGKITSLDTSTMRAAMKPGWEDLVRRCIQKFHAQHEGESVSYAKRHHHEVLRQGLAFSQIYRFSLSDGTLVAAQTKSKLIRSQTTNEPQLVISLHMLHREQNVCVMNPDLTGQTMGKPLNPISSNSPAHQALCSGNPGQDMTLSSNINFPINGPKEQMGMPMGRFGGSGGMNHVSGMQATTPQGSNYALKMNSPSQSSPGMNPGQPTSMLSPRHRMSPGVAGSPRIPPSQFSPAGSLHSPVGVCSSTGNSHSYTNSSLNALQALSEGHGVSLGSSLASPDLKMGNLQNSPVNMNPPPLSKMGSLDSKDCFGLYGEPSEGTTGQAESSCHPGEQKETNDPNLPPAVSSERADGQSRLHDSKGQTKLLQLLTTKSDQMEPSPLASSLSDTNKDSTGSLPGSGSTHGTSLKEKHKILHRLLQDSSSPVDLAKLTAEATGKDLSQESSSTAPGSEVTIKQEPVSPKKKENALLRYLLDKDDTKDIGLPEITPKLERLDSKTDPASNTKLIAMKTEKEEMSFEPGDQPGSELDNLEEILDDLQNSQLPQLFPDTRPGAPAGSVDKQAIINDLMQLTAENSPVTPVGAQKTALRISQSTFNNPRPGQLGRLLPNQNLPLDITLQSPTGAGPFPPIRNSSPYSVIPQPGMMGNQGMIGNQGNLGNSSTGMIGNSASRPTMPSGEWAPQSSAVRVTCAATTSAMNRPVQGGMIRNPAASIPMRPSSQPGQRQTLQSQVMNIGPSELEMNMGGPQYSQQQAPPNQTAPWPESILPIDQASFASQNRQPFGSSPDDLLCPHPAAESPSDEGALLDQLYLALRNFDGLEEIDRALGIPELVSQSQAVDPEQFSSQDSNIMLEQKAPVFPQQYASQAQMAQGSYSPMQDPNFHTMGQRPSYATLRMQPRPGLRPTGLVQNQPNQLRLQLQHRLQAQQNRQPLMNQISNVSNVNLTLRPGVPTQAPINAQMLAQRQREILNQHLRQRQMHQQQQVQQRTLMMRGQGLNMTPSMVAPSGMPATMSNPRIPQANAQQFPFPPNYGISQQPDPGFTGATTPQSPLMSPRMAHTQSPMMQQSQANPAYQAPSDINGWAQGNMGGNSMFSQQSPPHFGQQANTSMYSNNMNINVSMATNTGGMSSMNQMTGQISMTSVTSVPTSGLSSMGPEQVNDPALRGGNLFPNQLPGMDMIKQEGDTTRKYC
Sequence of Estrogen receptor beta (Q92731 whole entry): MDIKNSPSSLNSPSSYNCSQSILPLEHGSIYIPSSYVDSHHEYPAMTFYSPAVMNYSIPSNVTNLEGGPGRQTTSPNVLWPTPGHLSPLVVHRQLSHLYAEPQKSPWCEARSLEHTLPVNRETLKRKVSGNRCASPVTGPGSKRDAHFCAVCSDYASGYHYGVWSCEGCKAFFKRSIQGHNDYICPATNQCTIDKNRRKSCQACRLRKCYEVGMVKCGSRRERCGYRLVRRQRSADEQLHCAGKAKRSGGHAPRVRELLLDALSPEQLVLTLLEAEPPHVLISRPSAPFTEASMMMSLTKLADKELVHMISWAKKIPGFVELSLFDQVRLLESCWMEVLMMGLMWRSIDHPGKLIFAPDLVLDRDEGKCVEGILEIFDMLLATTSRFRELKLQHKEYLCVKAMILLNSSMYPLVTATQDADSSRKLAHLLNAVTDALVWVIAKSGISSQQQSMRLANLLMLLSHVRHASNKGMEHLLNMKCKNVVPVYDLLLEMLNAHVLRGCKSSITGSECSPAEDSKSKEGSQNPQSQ
Sequence of FAD-linked sulfhydryl oxidase ALR (P55789 whole entry): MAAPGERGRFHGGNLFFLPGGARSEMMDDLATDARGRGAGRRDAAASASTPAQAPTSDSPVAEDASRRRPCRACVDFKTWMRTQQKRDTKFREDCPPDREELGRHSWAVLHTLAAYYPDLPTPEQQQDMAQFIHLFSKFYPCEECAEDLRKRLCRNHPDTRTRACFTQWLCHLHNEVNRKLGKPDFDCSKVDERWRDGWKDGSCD

## O=C(O)CC(Cn1nnnc1S)c1ccccc1 (stereo not given)
Estrogen receptor beta
  IC50: > 50 µM (not active)

## Cc1ccc2nc(NC(=O)CCCc3nc4ccccc4s3)sc2c1
[1]
  EC50: 0.499 µM (active)
[2]
  EC50: 1.6 µM (active)
cells
  EC50: > 12 µM (not active)
[3]
  EC50: < 0.1 µM (active)
[4]
  IC50: > 39.8 µM (not active)
[5]
  EC50: 1.54 µM (active)

## CCCCCCOc1ccc(CN2CCN(CCO)CC2)cc1
[6]
  EC50: 1.74 µM (active)
HT-1080
  EC50: > 50 µM (not active)
[7]
  AC50: < 0.16 µM (active)

## Nc1c(-c2cccc(Cl)c2)cnc2c(-c3ccccc3)cnn12
[8]
  EC50: 0.478 µM (active)
[9]
  EC50: < 0.1 µM (inconclusive)
H4
  EC50: 0.785 µM (active)
[10]
  EC50: 1.15 µM (active)
[11]
  EC50: 0.321 µM (active)

## CCCn1c(NC(=O)c2ccc(Br)cc2)nc2ccccc21
[12]
  EC50: 9.79 µM (active)
[13]
  EC50: 8.96 µM (active)
[14]
  EC50: 13.6 µM (not active)

## O=C(CSc1nnnn1Cc1ccccc1)NCC(=O)c1ccccc1
[12]
  EC50: 45.9 µM (not active)
[13]
  EC50: > 79.4 µM (not active)
[14]
  EC50: 84.7 µM (not active)

## CSc1nc(O)c2c(n1)N=C1CCCC(O)=C1C2c1cccs1 (stereo not given)
Estrogen receptor beta
  IC50: 11.4 µM (active)

## CCOc1ccc(CCNC(=O)CSc2nn(-c3ccc(C)c(Cl)c3)c(=S)s2)cc1OCC
[12]
  EC50: 51.9 µM (not active)
[13]
  EC50: > 79.4 µM (not active)
[14]
  EC50: > 79.4 µM (not active)

## COc1cc(/C=C/c2ccc3cccc(O)c3n2)cc(Br)c1OC
HEK293 [15]
  EC50: > 20 µM (inactive)
BJ [16]
  EC50: 10.2 µM (active)
HEK293 [17]
  IC50: 10.4 µM (active)
BJ [18]
  EC50: 35.8 µM (active)
HEK293 [19]
  IC50: > 20 µM (inactive)
[20]
  EC50: > 20 µM (inactive)
HEK293 [21]
  IC50: 4.13 µM (inactive)
[22]
  EC50: 0.699 µM (active)
HEK293 [23]
  IC50: > 20 µM (inactive)
[24]
  EC50: 9.61 µM (active)
BJ [25]
  EC50: 21.1 µM (active)
[26]
  EC50: 21.1 µM (active)

## COc1ccc2nc(O)c(CN(C3CCCCC3)C(c3nnnn3Cc3ccco3)C(C)C)cc2c1 (stereo not given)
[27]
  IC50: 25.9 µM (active)
[28]
  IC50: 3.17 µM (active)

## COC(=O)c1c(N)sc(C(=O)NCCc2ccccc2)c1C
[1]
  EC50: 3.07 µM (active)
[29]
  EC50: 0.394 µM (active)
[3]
  EC50: 0.213 µM (active)
[4]
  IC50: > 39.8 µM (not active)
[30]
  AC50: > 52 µM (inactive)
[31]
  AC50: > 52 µM (inactive)
[32]
  AC50: 1.44 µM (active)
[33]
  AC50: 1.94 µM (active)

## CN(C)c1ccc(/C=C/c2nnnn2-c2ccccc2)cc1
[8]
  EC50: 0.463 µM (active)
[9]
  EC50: < 0.1 µM (inconclusive)
H4
  EC50: < 0.1 µM (active)
[10]
  EC50: 0.323 µM (active)
[11]
  EC50: 0.365 µM (active)
[34]
  AC50: 0.894 µM (active)

## CC(C)(C#CCCCCC#CC(C)(C)[N+](C)(C)C)[N+](C)(C)C
[35]
  IC50: > 100 µM (inactive)
[36]
  IC50: 7.97 µM (active)

## O=[N+]([O-])c1ccc(O)c(/C=N/Nc2nn[nH]n2)c1
Beta-galactosidase
  IC50: > 66.6 µM (inactive)
Nonstructural protein 1
  IC50: 1.66 µM (active)

## Cc1ccc(NC2=C/C(=N/S(=O)(=O)c3cccs3)c3ccccc3C2=O)cc1C
[8]
  EC50: 0.348 µM (active)
[37]
  EC50: 0.181 µM (active)
[9]
  EC50: < 0.1 µM (active)
H4
  EC50: < 0.1 µM (active)
[10]
  EC50: 0.43 µM (active)
[38]
  IC50: 22.3 µM (not active)
[11]
  EC50: 0.318 µM (active)
INS1
  AC50: 1.56 µM (active)
